From paper PMC5131915, “Platinum(II) Iodido Complexes of 7-Azaindoles with Significant Antiproliferative Effects: An Old Story Revisited with Unexpected Outcomes” (PLoS ONE, 2016)
Read-outs that look alike come from different tables or passages of the source.

Legend:
[1] = test system: spleen, renal tissue and tumour tissues of L1210 leukaemia-bearing mice; experiment: Histological observations (light microscopy, semi-quantitative); conditions: relative scale 0 to 4
Description: Randomly selected paraffin block preparations were stained by standard hematoxylin and eosin stain for light microscopic evaluation. Due to high cellularity, the semi-quantitative method was used for the evaluation of necrosis in well-circumcised and diffuse tumour samples and PMN cells infiltration in normal tissues as an indirect sign of toxicity to healthy tissues. The evaluation of necrotic processes and infiltration by PMN cells was semi-quantitative, based on the percentage of necrotic areas and/or infiltrated area in the view-field of at least three different samples.

[2] = test system: Caco-2 colorectal carcinoma cells; experiment: In vitro cytotoxicity testing (MTT assay), Caco-2; type: cell-based, human; conditions: 24 h drug exposure, no recovery, MTT; read-out: IC50±SD, Caco-2
Method: (§1) All cell lines were grown as adherent monolayers at 37°C and 5% CO2 in a humidified atmosphere.
(§2) The MTT assay was used to determine the cell viability; MTT = 3-(4,5-dimethylthiazol-2-yl)-2,5-diphenyltetrazolium bromide. A concentration of the formed dye was evaluated spectrophotometrically at 540 nm (TECAN, Schoeller Instruments LLC).
(§3) The data were expressed as the percentage of viability, where 100% and 0% represents the treatments with negative and positive controls, respectively. The data from the cancer cells were acquired from three independent experiments (conducted in triplicate) using cells from different passages. The resulting IC50 values (μM) were calculated from viability curves and the results are presented as arithmetic mean±SD.

[3] = test system: 22Rv1 prostate carcinoma cells; experiment: In vitro cytotoxicity testing (MTT assay), 22Rv1; type: cell-based, human; conditions: 24 h drug exposure, no recovery, read-out: IC50±SD, 22Rv1
Method: (§4) A2780 ovarian carcinoma, A2780R cisplatin-resistant ovarian carcinoma, HOS osteosarcoma, G361 malignant melanoma, MCF7 breast carcinoma, A549 lung carcinoma, HeLa cervix carcinoma, 22Rv1 prostate carcinoma and Caco-2 colorectal carcinoma human cancer cell lines were purchased from the European Collection of Cell Cultures (ECACC), while the human non-cancerous hepatocytes (Hep) were supplied by Biopredic Intl. The cell lines were cultured, according to the suppliers`instructions, in RPMI-1640 medium supplemented with 10% of fetal calf serum, 1% of 2 mM glutamine, and 1% penicillin/streptomycin. All cell lines were grown as adherent monolayers at 37°C and 5% CO2 in a humidified atmosphere.
(§5) The cells were seeded to 96-well culture plates, pre-incubated in drug-free media at 37°C for 24 h and treated typically with the 0.01–50.0 μM solutions, prepared from the stock solutions by dilution with medium, for 24 h at 37°C. […] In parallel with compounds 1–8 and the reference drugs, the cells were also treated with vehicle (0.1% DMF in medium; negative control) and Triton X-100 (1%; positive control) to assess the minimal and maximal cell damage, respectively. The MTT assay was used to determine the cell viability; MTT = 3-(4,5-dimethylthiazol-2-yl)-2,5-diphenyltetrazolium bromide. A concentration of the formed dye was evaluated spectrophotometrically at 540 nm (TECAN, Schoeller Instruments LLC).
as §3

[4] = test system: A549 lung carcinoma cells; experiment: In vitro cytotoxicity testing (MTT assay), A549; type: cell-based, human; conditions: 24 h drug exposure, no recovery, read-out: IC50±SD, A549
Method: as §4, §5, §3

[5] = test system: HeLa cervix carcinoma cells; experiment: In vitro cytotoxicity testing (MTT assay), HeLa; type: cell-based, human; conditions: 24 h drug exposure, no recovery, read-out: IC50±SD, HeLa
Method: as §4, §5, §3

MCL-1L (37 kDa) = experiment: Ex vivo Western blot of tumour tissues, MCL-1L; type: in vivo, mice; conditions: pooled tumour samples
Method: (§6) Frozen tumour samples were homogenized by a bench blender IKA DI25 (IKA-Werke, Germany) in the presence of a lysis buffer [cOmplete Protease Inhibitor Cocktail (Roche, Germany), 50 mM Tris-HCl pH 7.5, 1 mM EGTA, 1 mM EDTA, 1 mM sodium orthovanadate, 50 mM sodium fluoride, 5 mM sodium pyrophosphate, 270 mM sucrose, 0.5% (v/v) Triton X-100]. Subsequently, the blended samples were centrifuged at 9.000 g at 4°C for 15 min. The supernatants were collected and the protein concentration was measured by the Brandford’s method using the Brandford reagent (Amresco, USA) according to the manufacturer’s manual. The measured samples were stored at -80°C for the following experiments.
(§7) The expression of caspase 3, MCL-1, p53, and β-actin as loading control were evaluated by Western blot analysis and immunodetection. Lysates were mixed with a denaturing loading dye [250 mM Tris-HCl pH 6.8, 5% (v/v) β-mercaptoethanol, 10% (w/v) sodium dodecyl sulfate, 30% (v/v) glycerol, 0.04% (w/v) bromophenol blue], heated for 5 min at 70°C. To eliminate intra-species variability, and to obtain the same amount of proteins from all experimental groups, all samples from one group of animals were pooled together and loaded onto a 15% polyacrylamide denaturing gel. The final protein amount was 50 μg per well. After protein separation in the gel, they were transferred on the Immun-Blot polyvinylidene difluoride membrane 0.2 μm (Bio-Rad, USA). Then, the membrane was blocked by 5% (w/v) BSA in TBST [10 mM Tris-HCl pH 7.5, 150 mM NaCl, 0.1% (v/v) Tween-20]. […] HRP was detected by Clarity Western ECL Substrate (Bio-Rad, USA) using chemiluminescent documentation system Syngene PXi-4 (UK).

[6] = test system: L1210 mouse lymphocytic leukaemia cells; experiment: In vivo antitumour activity testing, L1210 lymphocytic leukaemia model; set-up: species or system mice; conditions: dose equimolar to cisplatin 2 mg/kg, i.p.
Method: The experimental animals used for in vivo antitumour testing were female DBA/2 SPF mice obtained from Charles Rivers Laboratories. The animals were housed in the Sealsafe NEXT—IVC Blue Line Housing System (Tecniplast, Italy) to ensure the best possible experimental conditions and eliminate the risk of possible intergroup cross-contamination, and kept in Plexiglas cages at constant temperature (22±1°C) and relative humidity of 55±5% for one-week adaptation period before the start of the experiment. All experimental procedures were performed according to the National Institute of Health (NIH) Guide for the Care and Use of Laboratory Animals. The protocol was approved by the Expert Committee on the Protection of Animals Against Cruelty at the University of Veterinary and Pharmaceutical Sciences Brno (Permit Number: 71/2013). The number of pharmacological interventions was limited to the necessary minimum in order to minimize the suffering of animals, which were observed regularly for the symptoms connected with the tumour progression. […] No animals had to be sacrificed due to the above mentioned criteria of humane treatment and no post-application deaths within the 2 hours after the application were observed during the experiment. […] The animal tissues for the ex vivo experiments and histological evaluations were taken post mortem, in case of surviving animals immediately after they were sacrificed by the lethal dose of carbon dioxide inhalation, immediately followed by the cervical dislocation.
The animals were monitored several times a day for the signs of tumour progression and distress development.

[7] = test system: MCF7 breast carcinoma cells; experiment: In vitro cytotoxicity testing (MTT assay), MCF7; type: cell-based, human; conditions: 24 h drug exposure, no recovery, read-out: IC50±SD, MCF7
Method: as §4, §5, §3

[8] = test system: human non-cancerous hepatocytes (Hep); experiment: In vitro cytotoxicity testing (MTT assay), hepatocytes; type: cell-based; conditions: 24 h drug exposure, no recovery
Method: as §4, §5, §3

[9] = test system: A2780R cisplatin-resistant ovarian carcinoma cells; experiment: In vitro cytotoxicity testing (MTT assay), A2780R; type: cell-based, human; conditions: for resistance factor (RF), IC50(A2780R)/IC50(A2780): 24 h IC50 values; for IC50: 24 h drug exposure, no recovery, MTT, read-out: IC50±SD, A2780R
Method: as §1, §2, §3

[10] = test system: A2780 ovarian carcinoma cells; experiment: In vitro cytotoxicity testing (MTT assay), A2780; type: cell-based, human
Method: as §1, §2, §3

[11] = test system: G361 malignant melanoma cells; experiment: In vitro cytotoxicity testing (MTT assay), G361; type: cell-based, human; conditions: 24 h drug exposure, no recovery, read-out: IC50±SD, G361
Method: as §4, §5, §3

[12] = test system: caspase 3 (Cas-3), active form p17; experiment: Ex vivo Western blot of tumour tissues, cleaved caspase 3; type: in vivo, mice; conditions: pooled tumour samples
Method: The expression of caspase 3, MCL-1, p53, and β-actin as loading control were evaluated by Western blot analysis and immunodetection. Lysates were mixed with a denaturing loading dye [250 mM Tris-HCl pH 6.8, 5% (v/v) β-mercaptoethanol, 10% (w/v) sodium dodecyl sulfate, 30% (v/v) glycerol, 0.04% (w/v) bromophenol blue], heated for 5 min at 70°C. […] The final protein amount was 50 μg per well. After protein separation in the gel, they were transferred on the Immun-Blot polyvinylidene difluoride membrane 0.2 μm (Bio-Rad, USA). Then, the membrane was blocked by 5% (w/v) BSA in TBST [10 mM Tris-HCl pH 7.5, 150 mM NaCl, 0.1% (v/v) Tween-20]. […] HRP was detected by Clarity Western ECL Substrate (Bio-Rad, USA) using chemiluminescent documentation system Syngene PXi-4 (UK).

HOS osteosarcoma cells = experiment: In vitro cytotoxicity testing (MTT assay), HOS; type: cell-based, human; conditions: for IC50: 24 h drug exposure, no recovery, MTT, read-out: IC50±SD, HOS
Method: as §4, §5, §3

p53 = experiment: Ex vivo Western blot of tumour tissues, p53; type: in vivo, mice; conditions: pooled tumour samples
Method: as §6, §7

A2780 cells = experiment: Cellular accumulation of platinum (ICP-MS); type: cell-based, human; conditions: 24 h treatment at IC50 concentration
Method: The A2780 cells were seeded in 6-well culture plates (1×10^6 cells per well) and incubated overnight (37°C and 5% CO2 in a humidified incubator). […] The cells were washed with PBS (2 × 2 mL) after 24 h treatment, harvested by trypsin treatment, collected and centrifuged in PBS. The supernatants were discarded after centrifugation and pellets were digested in 500 μL of nitric acid (3 min at 150°C) using a microwave system Monowave300 (Anton Paar). Solutions were diluted with 4.5 mL of water and the platinum content was determined by ICP-MS. The obtained values were corrected for adsorption effects. The experiments were conducted in triplicate and the results are presented as arithmetic mean±SD.

[13] = Hydrophobicity studies (logP determination), octanol/water, ICP-MS; type: physicochemical; conditions: octanol/water (0.2 M KI)
Method: Complexes 4 and 6 (1 mmol) were ultrasonicated for 15 min in 10 mL of OSW, centrifuged and supernatants were collected. Aliquots (5 mL) of the obtained OSW solutions of complexes 4 and 6 were added to WSO (5 mL) and shaken for 2 h at ambient temperature. After that, the mixtures were centrifuged and aqueous layer was separated carefully. The platinum concentration was determined from OSW aliquots taken before ([Pt]OSWb) and after ([Pt]OSWa) partition by ICP-MS (ICP-MS spectrometer 7700x, Agilent) with the obtained values corrected for the adsorption effects. logP = log([Pt]WSO/[Pt]OSWa) equation was used for the partition coefficients calculation; [Pt]WSO = [Pt]OSWb−[Pt]OSWa. The experiments were conducted in triplicate.

[14] = 24 h drug exposure, no recovery, MTT, read-out: IC50±SD, A2780

| SMILES | IC50 [2] [µM] | IC50 [3] [µM] | IC50 [4] [µM] | IC50 [5] [µM] | IC50 [7] [µM] | IC50 [8] [µM] | resistance factor (RF), IC50(A2780R)/IC50(A2780) [9] | IC50 [9] [µM] | IC50 [10, 14] [µM] | IC50 [11] [µM] | IC50 (HOS osteosarcoma cells) [µM] | further results |
| --- | --- | --- | --- | --- | --- | --- | --- | --- | --- | --- | --- | --- |
| Clc1ccnc2[nH]ccc12.Clc1ccnc2[nH]ccc12.[I][Pt][I] [Complex 5, cis-[Pt(4Claza)2I2]] | 2.4 ± 0.7 | 4.2 ± 0.1 | 4.7 ± 0.3 | 3.8 ± 0.3 | 1.5 ± 0.5 | 4.2 | 1.10 | 3.4 ± 0.2 | 3.1 ± 0.1 | 3.2 ± 0.2 | 0.5 ± 0.2 | Areas of necrosis in tumour tissues [1]: 2 (2 = up to 50%); Infiltration of renal tissues (PMN cells) [1]: 1 (1 = up to 25%); Infiltration of spleen (PMN cells) [1]: 3 (3 = up to 75%); MCL-1L level in tumour tissue (MCL-1L (37 kDa)): negligible effect; tolerability / signs of toxicity (e.g. weight loss) [6]: well-tolerated; percentage of mean survival time T/C [6]: 100%; mean survival time ± SD ([6]; 10 days after implantation, control 17.4±1.6 days): 17.3 ± 2.3 days; IC50 ([10]; 6 h exposure, read-out: IC50, A2780, time-dependent cytotoxicity): 11 ± 2.9 µM; level of active form of Cas-3 in tumour tissue [12]: has not been observed; times more potent than cisplatin (HOS osteosarcoma cells; HOS cell line): ≤ 47 times; p53 level in tumour tissue (p53): did not affect |
| Clc1c[nH]c2ncccc12.Clc1c[nH]c2ncccc12.[I][Pt][I] [Complex 2, cis-[Pt(3Claza)2I2]] | 3.1 ± 0.2 | 4.8 ± 2.4 | 6.4 ± 1.4 | 4.8 ± 0.4 | 1.5 ± 0.4 | 5.9 | 0.89 | 3.3 ± 0.5 | 3.7 ± 0.4 | 2.3 ± 1 | 1.3 ± 0.8 |  |
| Brc1cnc2[nH]ccc2c1.Brc1cnc2[nH]ccc2c1.[I-].[I-].[Pt+2] [Complex 7, cis-[Pt(5Braza)2I2]] | 3.6 ± 0.2 | 5.1 ± 0.8 | 7.3 ± 1.6 | 5.4 ± 1.2 | 1.6 ± 0.8 | 3.8 | 1.03 | 3.5 ± 0.5 | 3.4 ± 0.2 | 3.4 ± 0.3 | 1.4 ± 1.1 |  |
| Ic1c[nH]c2c1ccc[n+]2[Pt-2]([I])([I])[n+]1cccc2c(I)c[nH]c21 [Complex 4, cis-[PtI2(3Iaza)2]] | 3.3 ± 0.1 | 4.5 ± 1.6 | 9.8 ± 1.3 | 6.2 ± 0.7 | 1.8 ± 0.3 | 11.8 | 1.13 | 2.6 ± 0.8 | 2.3 ± 1.1 | 1.6 ± 0.7 | 2.8 ± 1 | cellular accumulation (A2780 cells): 354±63 pmol Pt/10^6 A2780 cells; logP [13]: 0.41 |
